Data as given in paper PMC6359343 (Molecules, 2019).
“Also recorded” adds a separate entry of the source. Like-named read-outs stand apart in the source and are kept apart here.

Tests used:
[1] = tested on: Neuraminidase from Clostridium perfringens (bacterial neuraminidase); type: binding
[2] = target: Neuraminidase from Clostridium perfringens (C. welchii) (EC 3.2.1.18); type: biochemical; settings: for IC50: pH 5.0, 37 °C, read-out: IC50, bacterial neuraminidase
[3] = target: Neuraminidase from Clostridium perfringens (bacterial neuraminidase); type: biochemical; settings: for Ki: read-out: Ki (inhibition constant); for Kik/Kiv: Yang's method
[4] = concentration that caused 50% enzyme activity loss, three repeats
[5] = Lineweaver–Burk and Dixon plots

Compound | KA (binding constant) ([1]; fluorescence quenching, pH 5.0) [L/mol] | IC50 [2, 4] [µM] | KSV (Stern–Volmer constant) ([1]; fluorescence quenching, pH 5.0) [L/mol] | Ki ([3]; Dixon plots) [µM] | Kinetic Mode [3, 5] | further results
O=c1cc(-c2ccc(O)cc2)oc2cc(O)cc(O)c12 [Apigenin, apigenin, reference compound] | 514200 | 108 ± 1.8 |  |  |  | 
CC(C)=CCc1cc(-c2cc(=O)c3c(O)cc(O)c(CC=C(C)C)c3o2)cc(O)c1O [Compound 1, epimedokoreanin B] | 966600 | 0.17 ± 0.02 | 411040 | 0.15 | Noncompetitive | times more effective than luteolin (mother skeleton) ([2]; ratio of IC50 values): 500 times; Kinetic Mode ([3]; Lineweaver–Burk and Dixon plots, listed as compound 1): noncompetitive inhibition; also recorded: noncompetitive behavior; Kik/Kiv ([3]; [I] 0.12 µM): 16.0415; Kik/Kiv ([3]; [I] 0.24 µM): 6.6846; Kik/Kiv ([3]; [I] 0.48 µM): 7.7610; reversibility of inhibition ([3]; initial velocity versus enzyme concentration plots): reversible inhibitor
CC(C)=CCc1c(O)cc(O)c2c1OC(c1ccc(O)cc1)C(O)C2=O (stereo not shown) [Compound 2, 8-(γ,γ-dimethylallyl)-5,7,4′-trihydroxydihydroflavonol] | 792300 | 0.68 ± 0.03 | 236360 | 0.73 | Noncompetitive | times more potent in comparison with dihydrokaempferol ([2]; ratio of IC50 values): 700 times
CC(C)=CCc1cc(-c2cc(=O)c3c(O)cc(O)c(CC=C(C)C)c3o2)ccc1O [Compound 3, 5,7,4′-trihydroxy-8,3′-diprenyl flavone] | 760400 | 12.6 ± 0.2 | 134420 | 12.2 | Noncompetitive | 
COc1ccc(-c2oc3c(CC=C(C)C)c(O[C@@H]4O[C@H](CO)[C@@H](O)[C@H](O)[C@H]4O)cc(O)c3c(=O)c2O[C@@H]2O[C@@H](C)[C@H](O)[C@@H](O)[C@H]2O)cc1 [Compound 5, icariin] | 584400 | 57.8 ± 1.1 | 60400 | 36.8 | mixed type inhibitor; also recorded: mixed-type behavior; also recorded: Mixed type I | Kik/Kiv ([3]; [I] 35.0 µM): 3.6688; Kik/Kiv ([3]; [I] 70.0 µM): 2.3384; Kik/Kiv ([3]; [I] 140.0 µM): 2.0207
COc1ccc(-c2oc3c(CC=C(C)C)c(O)cc(O)c3c(=O)c2O[C@@H]2O[C@@H](C)[C@H](O)[C@@H](O)[C@H]2O[C@@H]2OC[C@@H](O)[C@H](O)[C@H]2O)cc1 [Compound 6, sagittatoside B] | 505700 | 106 ± 3.2 | 56080 | 103 | Noncompetitive | 
COc1ccc(-c2oc3c(c(O)cc4oc(C(C)(C)OC)cc43)c(=O)c2OC2OC(C)C(O)C(O)C2O)cc1 [Compound 7, 5-hydroxy-2-(4-methoxyphenyl)-8-(2-methoxypropan-2-yl)-3-(((2S,3R,4R,5R,6S)-3,4,5-trihydroxy-6-methyltetra-hydro-2H-pyran-2-yl)oxy)-4H-furo[2-3-h]chromen-4-one] | 785100 | 2.9 ± 0.7 | 216560 | 2.73 | Noncompetitive | times more effective compared with compound 8 ([2]; methoxy group (7) versus hydroxyl group (8)): 5 times
COc1ccc(-c2oc3c(c(O)cc4oc(C(C)(C)O)cc43)c(=O)c2O[C@@H]2O[C@@H](C)[C@H](O)[C@@H](O)[C@H]2O)cc1 [Compound 8, 5-hydroxy-8-(2-hydroxypropan-2-yl)-2-(4-methoxyphenyl)-3-(((2S,3R,4R,5R,6S)-3,4,5-trihydroxy-6-methyl-tetrahydro-2H-pyran-2-yl)oxy)-4H-furo[2,3-h]chromen-4-one] | 741600 | 16.7 ± 0.9 | 111200 | 16.4 | Noncompetitive | 
O=C1c2c(O)cc(O)cc2O[C@H](c2ccc(O)cc2)[C@H]1O [Dihydrokaempferol, dihydrokaempferol, reference compound] | 299800 | 500.4 ± 3.8 | 24790 |  |  | fluorescence quenching (FQ) effect [1]: insignificant
O=c1cc(-c2ccc(O)c(O)c2)oc2cc(O)cc(O)c12 [Luteolin, luteolin, reference compound] | 557800 | 85.6 ± 2.1 | 56140 |  |  | 
O=c1c(O)c(-c2ccc(O)c(O)c2)oc2cc(O)cc(O)c12 [Quercetin, reference compound] |  | 20.2 ± 0.8 |  |  |  | 
icariside II [Compound 4] |  |  |  |  |  | KA (binding constant) ([1]; pH 5): 733500 L/mol; KSV (Stern–Volmer constant) ([1]; pH 5): 95690 L/mol; IC50 [2]: 20 ± 0.5 µM; Kinetic Mode [3]: Noncompetitive (21.1 ± 0.8); Ki [3]: 21.1 µM
